These are literature values, as cited in patent US20020148003A1, “Transgenic plant or plants with a naturally high water content overproducing at least two amino acids of the aspartate family” (AVEBE, priority 1996, published 2002).

SMILES strings stand for the structures.

Data set [1] has as its system plant dihydrodipicolinate synthase (DHPS).
The target in data set [2] is plant aspartate kinase (AK) sensitive to lysine. Conditions: plant AKs, lysine inhibition; read-out: I50 of plant AKs sensitive to lysine.
The next data set has as its target E. coli DHPS (Escherichia coli, UniProt P0A6L2). Particulars: lysine inhibition, read-out: I50 of E. coli DHPS for lysine.

Sequence of E. coli DHPS (P0A6L2 whole entry): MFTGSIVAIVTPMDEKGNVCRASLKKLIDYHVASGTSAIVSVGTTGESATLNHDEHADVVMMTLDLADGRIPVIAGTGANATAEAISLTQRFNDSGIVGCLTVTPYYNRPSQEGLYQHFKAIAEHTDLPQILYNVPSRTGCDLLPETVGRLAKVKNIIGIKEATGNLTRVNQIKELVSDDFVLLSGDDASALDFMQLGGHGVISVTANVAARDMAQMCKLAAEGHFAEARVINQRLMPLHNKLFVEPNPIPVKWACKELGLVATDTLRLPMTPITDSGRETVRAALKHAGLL

Consider `NCCCC[C@H](N)C(=O)O` [lysine], for which, in data set [1] (plant DHPS more sensitive than E. coli DHPS), the “sensitivity to lysine inhibition, plant DHPS versus E. coli DHPS” value is listed as “about 100 fold”. Besides, the “sensitivity to lysine inhibition, plant DHPS versus plant AKs” value in data set [1] (plant DHPS more sensitive than lysine-sensitive plant AKs) is given as “about 10 fold”. Besides, the IC50 is 10 to 50 µM in data set [1] (plant DHPS, feedback inhibition by end product, read-out: I50 of DHPS for lysine); 100 to 700 µM in data set [2]; about 1000 µM at E. coli DHPS.
